Assay results: patent US20250179143A1, “SYSTEMS AND METHODS FOR CHAPERONE-MEDIATED LIGAND EXCHANGE ON MHC-I AND MHC-RELATED MOLECULES USING CHICKEN TAPBPR” (priority 2022, published 2025)
Non-standard residues stand in square brackets, D forms with d. No end group written: not given here.

Assays:
[1] = DSF thermal stability of pMHC-I molecules; format: physicochemical
[2] = target: chTAPBPR/HLA-B*08:01 complex (Homo sapiens, UniProt P01889, A93T/A95T/D138N/E176V/E187T/K202T/Q94N/R180D/S35A/V36M/Y33D/Y91F); experiment: EMSA of peptide-receptive complex with peptides; conditions: 10-fold molar excess peptide
[3] = target: HLA-A*02:01 (Homo sapiens, UniProt P04439, D140Y/D185E/D98H/E176V/E277Q/G131W/G231S/I119V/I121R/I166T/I218V/L300P/L318F/N151K/N90K/P208A/P217A/Q86G/Q94H/R138H/R169H/T345S); experiment: Fluorescence polarization (FP) peptide exchange
[4] = HLA-A*02:01 refolded with the named peptide
[5] = absence or presence of 10 nM hTAPBPR

Substance	Tm [1, 4] [°C]	exchange of βF placeholder peptide on HLA-A*02:01 for fluorescent peptide ([3]; 5000 nM hTAPBPR)	other results
A*02:01/βFILGFVFTV: HLA-A*02:01 loaded with βFILGFVFTV (SEQ ID NO: 66) ([βPhe]ILGFVFTV-OH; not fully specified; printed as βFILGFVFTV; also: loaded in HLA-A*02:01 complex)			Tm (° C.) ([1]; HLA-A*02 subtypes loaded with KILGFVFβFV and HLA-A*02:01 loaded with βF scanning peptides): 53.9 °C
AIFQSSMTK [HIV]			pMHC-I bands upon incubation of the complex with the peptide [2]: not
ALWMRLLPL [T1D30]			pMHC-I bands upon incubation of the complex with the peptide [2]: discrete pMHC-I bands
FLRGRAYGL [EBV]			pMHC-I bands upon incubation of the complex with the peptide [2]: discrete pMHC-I bands
ILDTAGQEEY [RAS, reference compound]			Tm ([1]; HLA-A*01:01 refolded with the named peptide): 52 °C
KILGFVF(BF)V [BetaA02]	53	complete fluorescent peptide exchange	
KILGFVFJV (photolabile J residue; VARIANT 8 J=3-amino-3-(2-nitrophenyl)-propionic acid) [PhotoA02, reference compound]	52		
KILGFVβFTV [βF-P7]	63	allowed peptide loading	exchange of βF placeholder peptide on HLA-A*02:01 for fluorescent peptide [3, 5]: no peptide exchange
KILGFβFFTV [βF-P6]	61	allowed peptide loading	exchange of βF placeholder peptide on HLA-A*02:01 for fluorescent peptide [3, 5]: no peptide exchange
KILGβFVFTV [βF-P5]	62	allowed peptide loading	
KILβFFVFTV [βF-P4]		complete fluorescent peptide exchange	
KIβFGFVFTV [βF-P3]	58	complete fluorescent peptide exchange	
MLYQHLLPL [T1D95]			pMHC-I bands upon incubation of the complex with the peptide [2]: discrete pMHC-I bands
βFILGFVFTV [βF-P1]		complete fluorescent peptide exchange	
